According to patent US6528456B2, “Herbicidal 2-pyrazolyl-6-aryloxypyri(mi)dines” (BASF Aktiengesellschaft, priority 1999, dated 2003):

Assays:
Type in all cases: in vivo
Setaria viridis [1] = assay: Post-emergence test; conditions: 2-4 weeks after treatment
Protocol: (§1) To evaluate their herbicidal activity, compounds according to the invention are tested using a representative range of plants: SETVI Setaria viridis [table] […] These acetone solutions are diluted with water and the resulting formulations applied at dosage levels equivalent of about 0.1 to 0. 4 kg per hectare of test compound per pot. After spraying the plants are placed on greenhouse benches and are cared for in the usual manner, commensurate with conventional greenhouse practices. From 2 to 4 weeks after treatment, the seedling plants are examined and rated according to the rating system provided above.

Setaria viridis [2] = assay: Pre-emergence test; conditions: 3 weeks after treatment
Protocol: (§2) To evaluate their herbicidal activity, compounds according to the invention are tested using a representative range of plants: SETVI Setaria viridis The pre-emergence tests involve spraying a liquid formulation of the compound onto the soil in which the seeds of the plant species mentioned above has recently been sown. The soil used in the tests is a prepared horticultural loam. The formulations used in the tests are prepared from solutions of the test compounds in acetone containing 0.4% by weight of an alkylphenol/ethylene oxide condensate available under the trade mark TRITON X-155. These acetone solutions are diluted with water and the resulting formulations applied at dosage levels corresponding to 0.025 kg, 0.100 kg or 0.400 kg of active material per hectare in a volume equivalent to 900 litres per hectare. In these tests untreated sown soil are used as controls. From 2 to 4 weeks after treatment, the tests are terminated and each pot is examined and rated according to the rating system set forth below: [table]

Matricaria inodora [3] = assay: Pre-emergence test; conditions: 3 weeks after treatment
Protocol: as §2, with “MATIN Matricaria inodora” for “SETVI Setaria viridis”

Abutilon theophrasti [4] = assay: Pre-emergence test; conditions: 3 weeks after treatment
Protocol: as §2, with “ABUTH Abutilon theophrasti” for “SETVI Setaria viridis”

Stellaria media = assay: Pre-emergence test; conditions: 3 weeks after treatment
Protocol: as §2, with “STEME Stellaria media” for “SETVI Setaria viridis”

Matricaria inodora [5] = assay: Post-emergence test; conditions: 2-4 weeks after treatment
Protocol: as §1, with “MATIN Matricaria inodora” for “SETVI Setaria viridis”

Abutilon theophrasti [6] = assay: Post-emergence test; conditions: 2-4 weeks after treatment
Protocol: as §1, with “ABUTH Abutilon theophrasti” for “SETVI Setaria viridis”

Glycine max = assay: Pre-emergence test; conditions: 3 weeks after treatment
Protocol: To evaluate their herbicidal activity, compounds according to the invention are tested using a representative range of plants:
The pre-emergence tests involve spraying a liquid formulation of the compound onto the soil in which the seeds of the plant species mentioned above has recently been sown.
as §2, with “The” for “To evaluate their herbicidal activity, compounds according to the invention are tested using a representative range of plants: SETVI Setaria viridis The pre-emergence tests involve spraying a liquid formulation of the compound onto the soil in which the seeds of the plant species mentioned above has recently been sown. The”, “[table]” left out

For `Cc1cc(Oc2cccc(C(F)(F)F)c2)nc(-c2cc(C(F)(F)F)nn2C)c1` [Example 63], the SETVI herbicidal rating (Setaria viridis [1]; 0.1 kg/ha) was 3 (3 - Moderate effect), the SETVI herbicidal rating (Setaria viridis [1]; 0.4 kg/ha) was 6 (6 - Herbicidal effect) and the SETVI herbicidal rating (Setaria viridis [2]; 0.025 kg/ha) was 1 (1 - Trace effect). The SETVI herbicidal rating (Setaria viridis [2]; 0.100 kg/ha) was 5 (5 - Definite injury), the SETVI herbicidal rating (Setaria viridis [2]; 0.400 kg/ha) was 9 (9 - Complete kill) and the MATIN herbicidal rating (Matricaria inodora [3]; 0.100 kg/ha) was 6 (6 - Herbicidal effect). For the same molecule, the MATIN herbicidal rating (Matricaria inodora [3]; 0.400 kg/ha) was 9 (9 - Complete kill), the ABUTH herbicidal rating (Abutilon theophrasti [4]; 0.100 kg/ha) was 0 (0 - No effect) and the ABUTH herbicidal rating (Abutilon theophrasti [4]; 0.400 kg/ha) was 2 (2 - Slight effect). For the same molecule, the STEME herbicidal rating (Stellaria media; 0.100 kg/ha) was 3 (3 - Moderate effect), the STEME herbicidal rating (Stellaria media; 0.400 kg/ha) was 9 (9 - Complete kill) and the MATIN herbicidal rating (Matricaria inodora [5]; 0.1 kg/ha) was 5 (5 - Definite injury). For the same molecule, the MATIN herbicidal rating (Matricaria inodora [5]; 0.4 kg/ha) was 7 (7 - Good herbicidal effect), the ABUTH herbicidal rating (Abutilon theophrasti [6]; 0.1 kg/ha) was 4 (4 - Injury) and the ABUTH herbicidal rating (Abutilon theophrasti [6]; 0.4 kg/ha) was 4 (4 - Injury). The GLXMA herbicidal rating (Glycine max; 0.025 kg/ha) was 0 (0 - No effect), the GLXMA herbicidal rating (Glycine max; 0.100 kg/ha) was 0 (0 - No effect) and the GLXMA herbicidal rating (Glycine max; 0.400 kg/ha) was 0 (0 - No effect).

For `Cc1cnc(-c2cc(C(F)(F)F)nn2C)nc1Oc1cc(C(F)(F)F)nn1C` [Example 4, 2-(1-Methyl-3-trifluoromethylpyrazol-5-yl)-6-(1-methyl-3-trifluoromethylpyrazol-5-yloxy)-5-methylpyrimidine], the SETVI herbicidal rating (Setaria viridis [1]; 0.1 kg/ha) was 9 (9 - Complete kill), the SETVI herbicidal rating (Setaria viridis [1]; 0.4 kg/ha) was 9 (9 - Complete kill) and the SETVI herbicidal rating (Setaria viridis [2]; 0.025 kg/ha) was 8 (8 - Approaching complete kill). For the same molecule, the SETVI herbicidal rating (Setaria viridis [2]; 0.100 kg/ha) was 9 (9 - Complete kill), the SETVI herbicidal rating (Setaria viridis [2]; 0.400 kg/ha) was 9 (9 - Complete kill) and the MATIN herbicidal rating (Matricaria inodora [3]; 0.025 kg/ha) was 8 (8 - Approaching complete kill). For the same molecule, the MATIN herbicidal rating (Matricaria inodora [3]; 0.100 kg/ha) was 8 (8 - Approaching complete kill), the MATIN herbicidal rating (Matricaria inodora [3]; 0.400 kg/ha) was 9 (9 - Complete kill) and the ABUTH herbicidal rating (Abutilon theophrasti [4]; 0.025 kg/ha) was 4 (4 - Injury). For the same molecule, the ABUTH herbicidal rating (Abutilon theophrasti [4]; 0.100 kg/ha) was 7 (7 - Good herbicidal effect), the ABUTH herbicidal rating (Abutilon theophrasti [4]; 0.400 kg/ha) was 9 (9 - Complete kill) and the STEME herbicidal rating (Stellaria media; 0.025 kg/ha) was 9 (9 - Complete kill). The STEME herbicidal rating (Stellaria media; 0.100 kg/ha) was 9 (9 - Complete kill), the STEME herbicidal rating (Stellaria media; 0.400 kg/ha) was 9 (9 - Complete kill) and the MATIN herbicidal rating (Matricaria inodora [5]; 0.1 kg/ha) was 5 (5 - Definite injury). The MATIN herbicidal rating (Matricaria inodora [5]; 0.4 kg/ha) was 7 (7 - Good herbicidal effect), the ABUTH herbicidal rating (Abutilon theophrasti [6]; 0.1 kg/ha) was 6 (6 - Herbicidal effect) and the ABUTH herbicidal rating (Abutilon theophrasti [6]; 0.4 kg/ha) was 7 (7 - Good herbicidal effect). For the same molecule, the GLXMA herbicidal rating (Glycine max; 0.025 kg/ha) was 2 (2 - Slight effect), the GLXMA herbicidal rating (Glycine max; 0.100 kg/ha) was 3 (3 - Moderate effect) and the GLXMA herbicidal rating (Glycine max; 0.400 kg/ha) was 4 (4 - Injury).

`Cn1nc(C(F)(F)F)cc1Oc1cc(C#N)cc(-c2cc(C(F)(F)F)nn2C)n1` [Example 3, 4-Cyano-2-(1-methyl-3-trifluoromethylpyrazol-5-yloxy)-6-(1-methyl-3-trifluoromethylpyrazol-5-yl)pyridine] was tested, and the SETVI herbicidal rating (Setaria viridis [1]; 0.1 kg/ha) was 5 (5 - Definite injury), the SETVI herbicidal rating (Setaria viridis [1]; 0.4 kg/ha) was 7 (7 - Good herbicidal effect) and the SETVI herbicidal rating (Setaria viridis [2]; 0.025 kg/ha) was 3 (3 - Moderate effect). For the same molecule, the SETVI herbicidal rating (Setaria viridis [2]; 0.100 kg/ha) was 5 (5 - Definite injury), the SETVI herbicidal rating (Setaria viridis [2]; 0.400 kg/ha) was 8 (8 - Approaching complete kill) and the MATIN herbicidal rating (Matricaria inodora [3]; 0.025 kg/ha) was 9 (9 - Complete kill). The MATIN herbicidal rating (Matricaria inodora [3]; 0.100 kg/ha) was 9 (9 - Complete kill), the MATIN herbicidal rating (Matricaria inodora [3]; 0.400 kg/ha) was 9 (9 - Complete kill) and the ABUTH herbicidal rating (Abutilon theophrasti [4]; 0.025 kg/ha) was 1 (1 - Trace effect). For the same molecule, the ABUTH herbicidal rating (Abutilon theophrasti [4]; 0.100 kg/ha) was 5 (5 - Definite injury), the ABUTH herbicidal rating (Abutilon theophrasti [4]; 0.400 kg/ha) was 8 (8 - Approaching complete kill) and the STEME herbicidal rating (Stellaria media; 0.025 kg/ha) was 8 (8 - Approaching complete kill). For the same molecule, the STEME herbicidal rating (Stellaria media; 0.100 kg/ha) was 9 (9 - Complete kill), the STEME herbicidal rating (Stellaria media; 0.400 kg/ha) was 9 (9 - Complete kill) and the MATIN herbicidal rating (Matricaria inodora [5]; 0.1 kg/ha) was 8 (8 - Approaching complete kill). The MATIN herbicidal rating (Matricaria inodora [5]; 0.4 kg/ha) was 8 (8 - Approaching complete kill), the ABUTH herbicidal rating (Abutilon theophrasti [6]; 0.1 kg/ha) was 4 (4 - Injury) and the ABUTH herbicidal rating (Abutilon theophrasti [6]; 0.4 kg/ha) was 5 (5 - Definite injury). For the same molecule, the GLXMA herbicidal rating (Glycine max; 0.025 kg/ha) was 0 (0 - No effect), the GLXMA herbicidal rating (Glycine max; 0.100 kg/ha) was 1 (1 - Trace effect) and the GLXMA herbicidal rating (Glycine max; 0.400 kg/ha) was 3 (3 - Moderate effect).
